US20230190950A1, “COMPOSITIONS AND METHODS FOR THE TREATMENT OF BACTERIAL INFECTIONS” (Cidara Therapeutics, Inc., priority 2017, published 2023)

Tests used:
Settings in all cases: 40% blood, 90 min
[1] = test system: PA 7874 COL^R; assay: MBC in human blood, PA 7874; type: cell-based, Pseudomonas aeruginosa
Experimental: (§1) Overnight stationary-phase cultures were centrifuged at 3,500×g for 10 min at room temperature and resuspended in 1×PBS to an optical density at 600 nm (OD600) of 0.4 (1×10^8 colony forming units [CFU]/mL) in RPMI with L-glutamine and phenol red (Life Technologies). […] MBC was defined as the minimum conjugate concentration required for complete bacterial clearance. An untreated growth control (40% blood, 0 μg/mL conjugate) was included in all assays.
(§2) Overnight stationary-phase cultures were centrifuged at 3,500×g for 10 min at room temperature and resuspended in 1×PBS to an optical density at 600 nm (OD600) of 0.4 (1×10^8 colony forming units [CFU]/ml) in RPMI with L-glutamine and phenol red (Life Technologies). Bacteria were diluted 1:25 in RPMI (4×10^6 CFU/ml) and 10 ul added to wells of a non-binding 96-well plate (Corning 3641) containing 80 ul of 50% hirudin anti-coagulated blood (complement active) in RPMI. […] MBC was defined as the minimum conjugate concentration required for bacterial clearance (Table 8A and Table 8B). An untreated growth control (40% blood, 0 ug/ml conjugate) was included in all assays as a growth comparator.

[2] = test system: EC 25922 COL^S; assay: MBC in human blood, EC 25922; type: cell-based, Escherichia coli
Experimental: as §1, §2

[3] = test system: AB 5075 COL^S; assay: MBC in human blood, AB 5075; type: cell-based, Acinetobacter baumannii
Experimental: as §1, §2

[4] = test system: PA 01 COL^S; assay: MBC in human blood, PA 01; type: cell-based, Pseudomonas aeruginosa
Experimental: as §1, §2

hIgG1 Fc: "h-IgG1 Fc (SEQ ID NO: 4)", "MW=54,731 Da"; the unconjugated Fc used as starting protein
>128 µg/mL: MBC in human hirudin-anticoagulated blood, P. aeruginosa PA7874 [1] | MBC in human hirudin-anticoagulated blood, E. coli ATCC 25922 [2] | MBC in human hirudin-anticoagulated blood, A. baumannii AB5075 [3] | MBC in human hirudin-anticoagulated blood, P. aeruginosa PAO1 [4]
